The record followed here is ChEMBL document CHEMBL4699602, “Stapled and Xenopus Glucagon-Like Peptide 1 (GLP-1)-Based Dual GLP-1/Gastrin Receptor Agonists with Improved Metabolic Benefits in Rodent Models of Obesity and Diabetes” (J Med Chem, 2020).

Each structure is given as a SMILES string. Where a SMILES comes first, the peptide text is derived from it.

As a reminder, the EC50 is the concentration at which the effect is half-maximal.

In this experiment the target is Glucagon-like peptide 1 receptor (Homo sapiens, UniProt P43220). The experiment can be described thus: Agonist activity at human GLP-1R expressed in HEK293 cells assessed as stimulation of cAMP accumulation incubated for 20 mins. Format: functional, cell-based. In general terms: cAMP levels reflect the balance of adenylyl cyclase and phosphodiesterase activity.
Sequence of Glucagon-like peptide 1 receptor (P43220 whole entry): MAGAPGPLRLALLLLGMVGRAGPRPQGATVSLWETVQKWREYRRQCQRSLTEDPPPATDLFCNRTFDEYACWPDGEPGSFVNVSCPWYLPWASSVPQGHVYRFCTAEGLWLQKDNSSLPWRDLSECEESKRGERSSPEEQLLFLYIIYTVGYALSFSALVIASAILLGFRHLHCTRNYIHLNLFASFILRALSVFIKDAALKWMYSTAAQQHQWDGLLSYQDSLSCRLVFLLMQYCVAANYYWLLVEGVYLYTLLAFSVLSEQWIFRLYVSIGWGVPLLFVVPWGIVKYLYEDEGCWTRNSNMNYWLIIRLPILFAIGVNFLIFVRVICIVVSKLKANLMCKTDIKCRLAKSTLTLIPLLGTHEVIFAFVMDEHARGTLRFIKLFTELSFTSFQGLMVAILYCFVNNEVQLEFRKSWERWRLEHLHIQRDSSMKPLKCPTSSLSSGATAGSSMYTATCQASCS
Turning to `CC[C@H](C)[C@H](NC(=O)[C@H](CC(C)C)NC(=O)[C@H](Cc1c[nH]c2ccccc12)NC(=O)[C@H](CCC(=O)O)NC(=O)[C@H](CS)NC(=O)[C@H](Cc1ccccc1)NC(=O)[C@H](CCC(=O)O)NC(=O)[C@H](CCCCN)NC(=O)[C@H](C)NC(=O)[C@H](C)NC(=O)[C@H](CCC(=O)O)NC(=O)[C@H](CCC(=O)O)NC(=O)[C@H](CCC(=O)O)NC(=O)[C@H](CC(C)C)NC(=O)[C@H](Cc1ccc(O)cc1)NC(=O)[C@H](CCC(=O)O)NC(=O)[C@@H](NC(=O)[C@@H](NC(=O)[C@H](CC(=O)O)NC(=O)[C@H](CC(N)=O)NC(=O)[C@@H](NC(=O)[C@H](Cc1ccc(O)cc1)NC(=O)[C@@H](NC(=O)CNC(=O)[C@H](CCC(=O)O)NC(=O)C(C)(C)NC(=O)[C@@H](N)Cc1c[nH]cn1)[C@@H](C)O)[C@@H](C)O)C(C)C)[C@@H](C)O)C(=O)N[C@@H](CCCCN)C(=O)NCC(=O)N[C@@H](CS)C(N)=O` (HELM PEPTIDE1{H.[Aib].E.G.T.Y.T.N.D.V.T.E.Y.L.E.E.E.A.A.K.E.F.C.E.W.L.I.K.G.C.[am]}$$$$V2.0), the EC50 was 0.62 nM.

Consider `CC[C@H](C)[C@H](NC(=O)[C@H](CS)NC(=O)[C@H](Cc1c[nH]c2ccccc12)NC(=O)[C@H](CCC(=O)O)NC(=O)[C@@H](NC(=O)[C@H](Cc1ccccc1)NC(=O)[C@H](CCC(=O)O)NC(=O)[C@H](CCCCN)NC(=O)[C@H](CS)NC(=O)[C@H](C)NC(=O)[C@H](CCC(=O)O)NC(=O)[C@H](CCC(=O)O)NC(=O)[C@H](CCC(=O)O)NC(=O)[C@H](CC(C)C)NC(=O)[C@H](Cc1ccc(O)cc1)NC(=O)[C@H](CCC(=O)O)NC(=O)[C@@H](NC(=O)[C@@H](NC(=O)[C@H](CC(=O)O)NC(=O)[C@H](CC(N)=O)NC(=O)[C@@H](NC(=O)[C@H](Cc1ccc(O)cc1)NC(=O)[C@@H](NC(=O)CNC(=O)[C@H](CCC(=O)O)NC(=O)C(C)(C)NC(=O)[C@@H](N)Cc1c[nH]cn1)[C@@H](C)O)[C@@H](C)O)C(C)C)[C@@H](C)O)[C@@H](C)CC)C(=O)N[C@@H](CCCCN)C(=O)NCC(=O)N[C@@H](CCCCN)C(=O)N1CCC[C@H]1C(=O)N[C@@H](CO)C(=O)N[C@@H](CO)C(=O)NCC(=O)N[C@@H](C)C(=O)N1CCC[C@H]1C(=O)N1CCC[C@H]1C(=O)N1CCC[C@H]1C(=O)N[C@@H](CO)C(N)=O` (HELM PEPTIDE1{H.[Aib].E.G.T.Y.T.N.D.V.T.E.Y.L.E.E.E.A.C.K.E.F.I.E.W.C.I.K.G.K.P.S.S.G.A.P.P.P.S.[am]}$$$$V2.0), for which the EC50 is 0.24 nM.

As to `CC[C@H](C)[C@H](NC(=O)[C@H](CS)NC(=O)[C@H](Cc1c[nH]c2ccccc12)NC(=O)[C@H](CCC(=O)O)NC(=O)[C@@H](NC(=O)[C@H](Cc1ccccc1)NC(=O)[C@H](CCC(=O)O)NC(=O)[C@H](CCCCN)NC(=O)[C@H](CS)NC(=O)[C@H](C)NC(=O)[C@H](CCC(=O)O)NC(=O)[C@H](CCC(=O)O)NC(=O)[C@H](CCC(=O)O)NC(=O)[C@H](CC(C)C)NC(=O)[C@H](Cc1ccc(O)cc1)NC(=O)[C@H](CCC(=O)O)NC(=O)[C@@H](NC(=O)[C@@H](NC(=O)[C@H](CC(=O)O)NC(=O)[C@H](CC(N)=O)NC(=O)[C@@H](NC(=O)[C@H](Cc1ccc(O)cc1)NC(=O)[C@@H](NC(=O)CNC(=O)[C@H](CCC(=O)O)NC(=O)C(C)(C)NC(=O)[C@@H](N)Cc1c[nH]cn1)[C@@H](C)O)[C@@H](C)O)C(C)C)[C@@H](C)O)[C@@H](C)CC)C(=O)N[C@@H](CCCCN)C(=O)NCC(=O)N[C@@H](CCCCN)C(N)=O` (HELM PEPTIDE1{H.[Aib].E.G.T.Y.T.N.D.V.T.E.Y.L.E.E.E.A.C.K.E.F.I.E.W.C.I.K.G.K.[am]}$$$$V2.0), the EC50 is 0.68 nM.
